The record followed here is patent US7332504B2, “Heterocyclic substituted aminoazacycles useful as central nervous system agents” (Abbott Laboratories, priority 1999, dated 2008).

In series [1] the target is T1, neuronal nicotinic acetylcholine receptors (Rattus norvegicus, UniProt P09483+P12390).
T1 construct: crude synaptic membrane preparations from whole rat brain; from tissue; host or cells: whole rat brain, crude synaptic membranes
The series can be described thus: Binding of [3H]-cytisine to neuronal nicotinic acetylcholine receptors, crude synaptic membranes from whole rat brain. The protocol: The In Vitro protocols for determination of nicotinic acetylcholine channel receptor binding potencies of ligands were determined as follows.
Binding of [^3H]-cytisine ([^3 H]-CYT) to neuronal nicotinic acetylcholine receptors was accomplished using crude synaptic membrane preparations from whole rat brain (Pabreza et al., Molecular Pharmacol., 1990, 39:9). Washed membranes were stored at —80° C. prior to use. Frozen aliquots were slowly thawed and resuspended in 20 volumes of buffer (containing: 120 mM NaCl, 5 mM KCl, 2 mM MgCl2, 2 mM CaCl2 and 50 mM Tris-Cl, pH 7.4 @4° C.). After centrifuging at 20,000×g for 15 minutes, the pellets were resuspended in 30 volumes of buffer.
The test compounds were dissolved in water to make 10 mM stock solutions. Each solution was then diluted (1:100) with buffer (as above) and further taken through seven serial log dilutions of produce test solution from 10^−5 to 10^−11 M.
Homogenate (containing 125-150 μg protein) was added to triplicate tubes containing the range of concentrations of test compound described above and [^3H]-CYT (1.25 nM) in a final volume of 500 μL. Samples were incubated for 60 minutes at 4° C., then rapidly filtered through Whatman GF/B filters presoaked in 0.5% polyethyleneimine using 3×4 mL of ice-cold buffer. The filter are counted in 4 mL of Ecolume® (ICN). Nonspecific binding was determined in the presence of 10 μM (−)-nicotine and values were expressed as a percentage of total binding. IC50 values were determined with the RS-1 (BBN) nonlinear least squares curve-fitting program and IC50 values were converted to Ki values using the Cheng and Prusoff correction ([…].

Another series concerns mouse hot plate paradigm. The series can be described thus: Mouse hot plate paradigm (analgesia). It is filed as in vivo. The settings on record: ip, 0.5 h, mice, intraperitoneal, dosed 30 minutes prior to testing, hot plate 55° C., increase in tenth jump latency relative to control, read-out: minimally effective dose (MED). The protocol: An in vivo protocol was utilized to determine the effectiveness of nicotinic acetylcholine receptor ligands as analgesic agents in the mouse hot plate paradigm.
Separate groups of mice, (n=8/group) were utilized for each dose group. All drugs were administered by the intraperitoneal route of administration. Test drugs were dissolved in water to make a 6.2 mM stock solution. Animals were dosed with this solution (10 mL/kg body weight) for a 62 micromol/kg dose. Lower doses were administered similarly, following serial dilution of the stock solution in half-log increments. Animals were dosed 30 minutes prior to testing in the hot plate. The hot-plate utilized was an automated analgesia monitor (Model #AHP16AN, Omnitech Electronics, Inc. of Columbus, Ohio). The temperature of the hot plate was maintained at 55° C. and a cut-off time of 180 seconds was utilized. Latency until the tenth jump was recoreded as the dependent measure. An increase in the tenth jump latency relative to the control was considered an effect.

A word on the melting point: it is the temperature, or range, at which the solid turns liquid. The term Ki denotes the equilibrium dissociation constant of an inhibitor or competing ligand from its target. Higher therefore signals weaker binding.

Each structure is given as a SMILES string. Where a name gives a salt, the structure may show the parent alone.

T1 sequence (P09483 31-630): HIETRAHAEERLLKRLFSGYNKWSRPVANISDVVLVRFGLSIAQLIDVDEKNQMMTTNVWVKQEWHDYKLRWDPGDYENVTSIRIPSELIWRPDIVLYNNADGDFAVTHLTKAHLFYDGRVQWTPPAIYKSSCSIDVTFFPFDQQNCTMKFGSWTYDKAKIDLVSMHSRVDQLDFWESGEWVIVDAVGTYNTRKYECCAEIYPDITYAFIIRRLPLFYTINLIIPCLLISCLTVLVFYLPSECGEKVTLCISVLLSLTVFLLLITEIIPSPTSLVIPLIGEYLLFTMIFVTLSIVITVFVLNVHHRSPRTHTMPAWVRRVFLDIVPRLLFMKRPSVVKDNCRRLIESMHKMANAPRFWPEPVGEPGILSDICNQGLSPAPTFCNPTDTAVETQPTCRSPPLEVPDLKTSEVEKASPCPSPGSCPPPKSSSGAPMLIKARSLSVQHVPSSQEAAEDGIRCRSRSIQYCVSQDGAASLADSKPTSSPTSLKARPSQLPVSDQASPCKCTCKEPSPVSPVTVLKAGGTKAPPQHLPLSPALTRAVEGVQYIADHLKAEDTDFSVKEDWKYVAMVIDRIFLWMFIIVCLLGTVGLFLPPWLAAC
T1 sequence (P12390 25-500): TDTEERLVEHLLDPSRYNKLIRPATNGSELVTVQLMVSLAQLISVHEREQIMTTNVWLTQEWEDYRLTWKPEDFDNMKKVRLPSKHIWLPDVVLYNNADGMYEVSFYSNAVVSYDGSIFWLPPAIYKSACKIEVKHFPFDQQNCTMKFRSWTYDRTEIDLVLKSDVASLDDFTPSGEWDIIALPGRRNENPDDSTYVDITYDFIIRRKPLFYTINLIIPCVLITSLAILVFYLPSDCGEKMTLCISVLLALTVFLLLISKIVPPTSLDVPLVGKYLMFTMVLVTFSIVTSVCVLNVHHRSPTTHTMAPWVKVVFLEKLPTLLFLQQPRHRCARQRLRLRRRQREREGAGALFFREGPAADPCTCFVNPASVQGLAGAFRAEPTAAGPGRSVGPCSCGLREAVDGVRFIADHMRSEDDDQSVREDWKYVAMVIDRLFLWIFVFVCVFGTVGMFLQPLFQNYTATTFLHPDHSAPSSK

With `CN[C@H]1CCN(c2cncc([N+](=O)[O-])c2)C1` (as salt: fumarate) [Example 30, N-methyl-N-[(3S)-1-(5-nitro-3-pyridinyl)pyrrolidinyl]amine fumarate], the melting point is 183 to 185 °C.

For the molecule `CN[C@@H]1CCN(c2ccc(Cl)nc2)C1` (as salt: hydrochloride) [Example 5, N-[(3R)-1-(6-chloro-3-pyridinyl)pyrrolidinyl]-N-methylamine hydrochloride], the melting point is 265 °C (dec.).

The molecule `N[C@H]1CCN(c2cncc(C(F)(F)F)c2)C1` (as salt: hydrochloride) [Example 13, (3S)-1-[5-(trifluoromethyl)-3-pyridinyl]pyrrolidinylamine dihydrochloride] came in with a melting point of 235 to 236 °C.

As for `N[C@@H]1CCN(c2cncc(C(F)(F)F)c2)C1` (as salt: hydrochloride) [Example 11, (3R)-1-[5-(trifluoromethyl)-3-pyridinyl]pyrrolidinylamine dihydrochloride], the melting point is 234 to 235 °C.

As for `N[C@H]1CCN(c2ccc(Cl)nc2)C1` (as salt: hydrochloride) [Example 2, (3S)-1-(6-chloro-3-pyridinyl)pyrrolidinylamine dihydrochloride], the melting point is over 250 °C.

`CN[C@@H]1CCCN(c2ccc(Cl)nc2)C1.Cl.Cl` [Example 48, N-[(3R)-1-(6-chloro-3-pyridinyl)piperidin-3-yl]-N-methylamine dihydrochloride] showed a melting point of 103 to 105 °C. In addition, the affinity in series [1], expressed as Ki, was 0.166 µM.

As to `N[C@H]1CCN(c2cncc([N+](=O)[O-])c2)C1` (as salt: fumarate) [Example 29, (3S)-1-(5-nitro-3-pyridinyl)pyrrolidinylamine fumarate], the melting point fell in the range of 213 to 214 °C.

`N[C@H]1CCCN(c2ccc(Cl)nc2)C1` (as salt: benzenesulfonate) [Example 45, (3S)-1-(6-chloro-3-pyridinyl)piperidinylamine bis(4-methylbenzenesulfonate)] gave a melting point of 182 to 184 °C.

`CN[C@H]1CCCN(c2ccc(Cl)nc2)C1` (as salt: hydrochloride) [Example 46, N-[(3S)-1-(6-chloro-3-pyridinyl)piperidin-3-yl]-N-methylamine dihydrochloride] had a melting point of 120 to 122 °C.

The molecule `CN[C@H]1CCCN(c2cnc(Cl)c(C)c2)C1.Cl` [Example 49, N-[(3S)-1-(6-chloro-5-methyl-3-pyridinyl)piperidin-3-yl]-N-methylamine hydrochloride] yielded a melting point of 75 to 77 °C. Further, the minimal effective dose in the series with mouse hot plate paradigm is 62 µmol/kg. In series [1], the affinity, expressed as Ki, was 0.0048 µM.

Turning to `N[C@H]1CCCN(c2cccnc2)C1` (as salt: benzenesulfonate) [Example 41, (3S)-1-(3-pyridinyl)piperidinylamine bis(4-methylbenzenesulfonate)], the melting point was in the range of 64 to 66 °C.

As for `CN[C@@H]1CCN(c2cncc([N+](=O)[O-])c2)C1` (as salt: fumarate) [Example 32, N-methyl-N-[(3R)-1-(5-nitro-3-pyridinyl)pyrrolidinyl]amine fumarate], the melting point fell in the range of 184 to 185 °C.

Take `N[C@@H]1CCN(c2cncc([N+](=O)[O-])c2)C1` (as salt: fumarate) [Example 31, (3R)-1-(5-nitro-3-pyridinyl)pyrrolidinylamine fumarate]: the melting point fell in the range of 212 to 213 °C.

Take `CN[C@H]1CCN(c2cncc(C(F)(F)F)c2)C1` (as salt: hydrochloride) [Example 14, N-methyl-N-{(3S)-1-[5-(trifluoromethyl)-3-pyridinyl]pyrrolidinyl}amine hydrochloride]: the melting point is 240 to 243 °C (dec.).
